{"source": "patent US20260297542A1", "about": "“HERBICIDE RESISTANT PLANTS” (SYNGENTA CROP PROTECTION AG, priority 2023, published 2026)", "test_in_all_cases": "E. coli hemG growth inhibition by herbicide, AtPPO1 variant", "format_in_all_cases": "cell-based", "conditions_in_all_cases": "read-out: percentage growth inhibition", "key": {"[1]": {"molecular_target": "T1, AtPPO1 G481N (Arabidopsis thaliana, UniProt P55826, G481N)", "T1 construct": "expressed in transfected cells; host or cells: E. coli BL21(DE3) hemG, pET24a plasmid", "T1 sequence (P55826 35-537 G481N)": "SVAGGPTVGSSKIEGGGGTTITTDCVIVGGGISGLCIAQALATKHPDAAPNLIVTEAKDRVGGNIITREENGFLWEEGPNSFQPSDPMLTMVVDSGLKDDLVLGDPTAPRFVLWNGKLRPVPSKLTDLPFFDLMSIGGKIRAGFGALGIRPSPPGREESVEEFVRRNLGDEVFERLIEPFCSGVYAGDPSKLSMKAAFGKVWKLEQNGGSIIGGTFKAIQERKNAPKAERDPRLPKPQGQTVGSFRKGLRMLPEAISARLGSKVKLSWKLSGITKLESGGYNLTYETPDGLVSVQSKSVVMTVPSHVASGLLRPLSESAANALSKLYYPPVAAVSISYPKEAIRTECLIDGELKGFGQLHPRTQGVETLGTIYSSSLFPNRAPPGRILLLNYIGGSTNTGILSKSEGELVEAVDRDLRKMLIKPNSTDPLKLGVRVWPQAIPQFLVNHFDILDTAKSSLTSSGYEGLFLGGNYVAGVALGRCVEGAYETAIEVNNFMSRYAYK", "outline": "(§1)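 Variant plasmids were transformed into hemG-null BL21(DE3) and precultured 24 h with hematin. Washed cells were diluted 1:100 into Terrific broth containing 0.1 mM IPTG and herbicide (6.25 ppm 0 or E; 0.78 ppm B) or DMSO. After 24 h at 37° C, OD600 gave percent inhibition.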"}, "[2]": {"molecular_target": "T2, AtPPO1 V127I (Arabidopsis thaliana, UniProt P55826, V127I)", "T2 construct": "expressed in transfected cells; host or cells: E. coli BL21(DE3) hemG (hemG replaced by CmR), pET24a plasmid", "T2 sequence (P55826 35-537 V127I)": "T1 sequence (P55826 35-537 G481N) with V93I, N447G", "outline": "as §1"}, "[3]": {"molecular_target": "T3, AtPPO1 V447C (Arabidopsis thaliana, UniProt P55826, V447C)", "T3 construct": "expressed in transfected cells; host or cells: E. coli BL21(DE3) hemG (pET24a, T7 promoter)", "T3 sequence (P55826 35-537 V447C)": "T1 sequence (P55826 35-537 G481N) with V413C, N447G", "outline": "as §1"}, "[4]": {"molecular_target": "T4, AtPPO1 D448H (Arabidopsis thaliana, UniProt P55826, D448H)", "T4 construct": "expressed in transfected cells; host or cells: E. coli BL21(DE3) hemG (pET24a, T7 promoter)", "T4 sequence (P55826 35-537 D448H)": "T1 sequence (P55826 35-537 G481N) with D414H, N447G", "outline": "as §1"}}, "note": "Where a chain is given by its changes, count along the chain named.", "data": [{"smiles": "CCOC(=O)[C@]1(C)CC(c2cc(-n3c(=O)n(C)c(=S)n(C)c3=O)c(F)cc2Cl)=NO1", "note": "[Herbicide D, ethyl (5S)-3-[2-chloro-5-(3,5-dimethyl-2,6-dioxo-4-thioxo-1,3,5-triazinan-1-yl)-4-fluoro-phenyl]-5-methyl-4H-isoxazole-5-carboxylate]", "values": [{"measurement": "inhibition at 6.25 ppm", "setting": "[1]", "value": 14, "unit": "%"}, {"measurement": "inhibition at 6.25 ppm", "setting": "[2]", "value": 23, "unit": "%"}, {"measurement": "inhibition at 6.25 ppm", "setting": "[3]", "value": 32, "unit": "%"}, {"measurement": "inhibition at 6.25 ppm", "setting": "[4]", "value": 26, "unit": "%"}]}, {"smiles": "C#CCN1C(=O)C(F)(F)Oc2cc(F)c(-n3c(=O)n(C)c(=S)n(C)c3=O)cc21", "note": "[Herbicide B, trifludimoxazin]", "values": [{"measurement": "inhibition at 0.78 ppm", "setting": "[1]", "value": 44, "unit": "%"}, {"measurement": "inhibition at 0.78 ppm", "setting": "[2]", "value": 28, "unit": "%"}, {"measurement": "inhibition at 0.78 ppm", "setting": "[3]", "value": 34, "unit": "%"}, {"measurement": "inhibition at 0.78 ppm", "setting": "[4]", "value": 31, "unit": "%"}]}, {"smiles": "CC(C)N(C)S(=O)(=O)NC(=O)c1cc(-n2c(=O)cc(C(F)(F)F)n(C)c2=O)c(F)cc1Cl", "note": "[Herbicide E, saflufenacil]", "values": [{"measurement": "inhibition at 6.25 ppm", "setting": "[1]", "value": 4, "unit": "%"}, {"measurement": "inhibition at 6.25 ppm", "setting": "[2]", "value": 69, "unit": "%"}, {"measurement": "inhibition at 6.25 ppm", "setting": "[3]", "value": 53, "unit": "%"}, {"measurement": "inhibition at 6.25 ppm", "setting": "[4]", "value": 57, "unit": "%"}]}]}
